Entries after “also recorded” stand apart in the source; their conditions may differ.
Experiments:
[1] = system: senescent cells (multiple models of senescence); experiment: Flow cytometry accumulation in control and senescent cells; type: cell-based, human; conditions: 12-16 hours exposure
Experimental: LSR Fortessa (BD-Becton Dickinson) was used for flow cytometry analysis. For cyanine dye nanoparticle and small molecule studies, 6 well plates were used and seeded 200,000 cells per well. […] After this, cells were trypsinised and re-suspended in PBS buffer with 2% FBS. At least 10,000 live events were collected for each condition. DAPI (Sigma) was added to exclude dead cells. The analysis of all flow cytometry data was performed using FlowJo v10 (Treestar, OR). Unstained control and senescent cells were used as reference for each independent experiment. For ICG the 640 nm laser was used with an emission window of 750-810 nm. For the cyanine dye nanoparticle, the 640 nm laser was used with an emission window of 708-753 nm.

[2] = system: SK-MEL-103 xenografts; experiment: Ex vivo IVIS fluorescence imaging of untreated and Palbociclib treated xenografts; type: in vivo, mice; conditions: 200 μL of 1 mg/mL tail vein, 6 h, p=0.0438
Experimental: All mice were treated in strict accordance with the local ethical committee (University of Cambridge License Review Committee) and the UK Home Office guidelines. Tumour xenografts were established using SK-MEL-103. Cells were trypsinised, counted with a haemocytometer, and injected subcutaneously (10^6 cells in a volume of 100 μL per dorsolateral flank) in 8- to 10-week-old athymic nude female mice (Crl:NU(NCr)-Foxn1^nu) purchased from Charles River Laboratories. Tumour volume was measured every 2 days with a caliper and calculated as V=(a×b 2)/2 where a is the longer and b is the shorter of two perpendicular diameters. […]
An IVIS Spectrum Imaging System (Perkin Elmer Inc) was used for ex vivo fluorescence imaging. For ex vivo imaging, mice were sacrificed by cervical dislocation and organs and tumour xenografts were analysed immediately after harvesting. ICG was detected using an excitation wavelength of 710-740 nm and emission bandpass from 810-830 nm. […] Fluorescence imaging quantification was performed by Living Image 3.2 software (Perkin Elmer Inc). […] Fluorescence activity is measured in photons per second per square centimetre per steradian (p/s/cm^2/sr). […]
See Examples—part A. Fluorescence activity is measured as average Radiant Efficiency with the equation of [p/s/cm2/sr]/[μW/cm2].

[3] = system: uptake of cyanine dye nanoparticles in control and senescent cells; experiment: Endocytosis analysis by confocal microscopy with endocytosis pathway inhibitors; type: cell-based; conditions: inhibitor 1 h before nanoparticles, 12-16 h
Experimental: Cells were trypsinized and seeded in flat-bottom μ-clear 96-well plates (Greiner Bio-One, #655087) at a density of 3,500-5,000 control and 4,000-6,000 senescent cells/well. Once the cells were attached, culture medium was changed to DMEM without FBS and exposed to a number of different inhibitors for 1 h. […] The cells were washed 3x with PBS for 5 min. Specific organelle stain LysoTracker Green DND-26 (Cell Signaling Technology, FM8783) was used according to the manufacturers protocol. For nuclei staining, Hoechst at 0.1 μg/mL in PBS was added 10 min prior to analysis.

Structure (SMILES) | effect of inhibitor on uptake of cyanine dye nanoparticles [3] | also measured
CC1(C)C(/C=C/C=C/C=C/C=C2\N(CCCCS(=O)(=O)O)c3ccc4ccccc4c3C2(C)C)=[N+](CCCCS(=O)(=O)[O-])c2ccc3ccccc3c21 [ICG, indocyanine green] |  | accumulation in senescent cells compared to controls [1]: accumulation of ICG; ICG emission in untreated (control) vs Palbociclib treated tumours [2]: accumulation in untreated tumours as opposed to senescent tumours; also recorded: significantly higher signal in the control tumours
O=C1NC(=NS(=O)(=O)c2cccc3ccccc23)S/C1=C\c1ccc(Br)cc1 [Pitstop 2] | significant inhibition; also recorded: significant inhibitor of endocytosis | 
CCN(CC)CCCC(C)Nc1ccnc2cc(Cl)ccc12 (centres unmarked) [chloroquine] | significantly enhances | effect of inhibitor on uptake of cyanine dye nanoparticles ([3]; listed as Chloroquine): more dramatic increase
O=C(N/N=C/c1cc(O)c(O)cc1O)c1cc2ccccc2cc1O [dynago4a] | significantly inhibited | effect of inhibitor on uptake of cyanine dye nanoparticles ([3]; listed as dyngo4a): significant inhibition
CN1CCN(CCCN2c3ccccc3Sc3ccc(Cl)cc32)CC1 [prochloroperazine] | not inhibited | 

Source: patent publication US20250152750A1 (Cancer Research Technology Limited, priority 2022, published 2025)
